Experimental data taken from the Kinase Knowledgebase extract (Sharma et al. 2016).

target: PIK3CA (human) (UniProt P42336); assay: Inhibition of PIK3CA Kinase Activity
Sequence (P42336 whole entry, looked up): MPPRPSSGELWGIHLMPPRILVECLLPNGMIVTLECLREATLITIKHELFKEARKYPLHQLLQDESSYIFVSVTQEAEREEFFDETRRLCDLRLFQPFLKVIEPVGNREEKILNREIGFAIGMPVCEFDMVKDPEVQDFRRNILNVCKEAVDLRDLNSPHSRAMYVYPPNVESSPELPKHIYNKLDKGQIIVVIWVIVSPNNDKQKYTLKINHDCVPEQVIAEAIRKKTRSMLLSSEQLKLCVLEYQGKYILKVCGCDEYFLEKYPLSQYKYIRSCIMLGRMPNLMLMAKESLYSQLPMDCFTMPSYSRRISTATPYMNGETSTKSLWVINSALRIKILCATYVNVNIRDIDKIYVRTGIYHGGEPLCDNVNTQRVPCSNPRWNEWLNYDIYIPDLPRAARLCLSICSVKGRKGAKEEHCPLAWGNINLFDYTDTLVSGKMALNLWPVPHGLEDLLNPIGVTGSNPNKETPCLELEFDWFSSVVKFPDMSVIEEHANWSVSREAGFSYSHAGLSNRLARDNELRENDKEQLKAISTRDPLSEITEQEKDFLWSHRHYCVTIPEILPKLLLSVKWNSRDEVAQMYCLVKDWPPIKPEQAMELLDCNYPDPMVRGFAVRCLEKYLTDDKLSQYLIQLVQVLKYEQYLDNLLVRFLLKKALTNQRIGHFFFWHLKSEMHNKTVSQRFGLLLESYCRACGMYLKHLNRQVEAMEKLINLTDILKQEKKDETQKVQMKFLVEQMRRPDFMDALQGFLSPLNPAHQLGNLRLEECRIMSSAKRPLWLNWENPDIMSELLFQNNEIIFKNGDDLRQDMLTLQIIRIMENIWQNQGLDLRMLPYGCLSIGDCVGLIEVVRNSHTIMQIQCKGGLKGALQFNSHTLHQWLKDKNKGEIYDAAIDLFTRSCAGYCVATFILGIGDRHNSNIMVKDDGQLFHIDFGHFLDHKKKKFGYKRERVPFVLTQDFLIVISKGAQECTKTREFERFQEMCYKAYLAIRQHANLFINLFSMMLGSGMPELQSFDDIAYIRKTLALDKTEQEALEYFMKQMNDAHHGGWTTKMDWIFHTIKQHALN

Row | IC50 [nM] | Structure (SMILES)
1 | 250 to 1000 | CC1(C)CCc2ncnc(N3CCOc4ccc(-c5cnc(N6CC[C@H](N)C6)c(S(=O)(=O)N6CC[C@H](N)C6)c5)cc4C3)c2C1
2 | ≤ 10 | Cc1ncnc(N2CCOc3ccc(-c4ccc(-c5ncc[nH]5)cc4)cc3C2)c1Cc1ccc(F)cc1
3 | 50 to 250 | Cc1nc2ccc(-c3ccc4c(c3)CN(c3ncnc(C)c3C(C)C)CCO4)cc2[nH]1
4 | 250 to 1000 | Cc1nc2ccc(-c3ccc4c(c3)CN(c3ncnc5c(C(F)(F)F)cccc35)CCO4)cc2[nH]1
5 | 50 to 250 | CN1C[C@@H]2C[C@H]1CN2S(=O)(=O)c1cc(-c2ccc3c(c2)CN(c2ncnc4c2CC(C)(C)CC4)CCO3)cnc1N
6 | 10 to 50 | Cc1nc2ncc(-c3ccc4c(c3)CN(c3ncnc5c3CCC(C)C5)CCO4)cc2[nH]1 (centres undefined)
7 | ≤ 10 | CCNc1nc2ccc(-c3ccc4c(c3)CN(c3ncnc(NCC)c3C)CCO4)cc2[nH]1
8 | ≤ 10 | CC(C)NS(=O)(=O)c1cc(-c2ccc3c(c2)CN(c2ncnc4c2CC(C)(C)CC4)CCO3)cnc1N
9 | 50 to 250 | COC(=O)Nc1nc2ccc(-c3ccc4c(c3)CN(c3nccc5ccccc35)CCO4)cc2[nH]1
10 | 10 to 50 | CSc1nc2ccc(-c3ccc4c(c3)CN(c3ccnc5ccccc35)CCO4)cc2[nH]1
11 | 250 to 1000 | Cc1nc2ccc(-c3ccc4c(c3)CN(c3ccnc(Nc5ccccc5)n3)CCO4)cc2[nH]1
12 | ≤ 10 | CN(C)Cc1nc2c(c(N3CCOc4ccc(-c5cnc6sc(N)nc6c5)cc4C3)n1)CC(C)(C)CC2
13 | 50 to 250 | CN1CC[C@@H](NS(=O)(=O)c2cc(-c3ccc4c(c3)CN(c3ncnc5c3CC(C)(C)CC5)CCO4)cnc2N)C1
14 | 50 to 250 | CC(C)(CO)CNS(=O)(=O)c1cc(-c2ccc3c(c2)CN(c2ncnc4c2CC(C)(C)CC4)CCO3)cnc1N
15 | 50 to 250 | CC1(C)CCc2ncnc(N3CCOc4ccc(-c5cnc(F)c(NS(C)(=O)=O)c5)cc4C3)c2C1
16 | 50 to 250 | Cc1nc2ccc(-c3ccc4c(c3)CN(c3ncnc5cc(Cl)ccc35)CCO4)cc2[nH]1
17 | 10 to 50 | c1ccc2c(N3CCOc4ccc(-c5ccc6nc(C7CC7)[nH]c6c5)cc4C3)ccnc2c1

Row | IC50 [nM] | Structure (SMILES)
18 | 10 to 50 | COCCNCc1nc2c(c(N3CCOc4ccc(-c5cnc6nc(C)[nH]c6c5)cc4C3)n1)CC(C)(C)CC2
19 | 10 to 50 | CN(C)c1ncc(-c2ccc3c(c2)CN(c2ncnc4c2CC(C)(C)CC4)CCO3)cc1NS(C)(=O)=O
20 | 10 to 50 | COc1cc2ncnc(N3CCOc4ccc(-c5ccc6nc(C)[nH]c6c5)cc4C3)c2cc1I
21 | 10 to 50 | CC1(C)CCc2ncnc(N3CCOc4ccc(-c5cnc(N)c(S(=O)(=O)N6CC[C@@H](O)C6)c5)cc4C3)c2C1
22 | ≤ 10 | Cc1nc2ncc(-c3ccc4c(c3)CN(c3nc(CN)nc5c3CC(C)(C)CC5)CCO4)cc2[nH]1
23 | ≤ 10 | COc1ccc2c(N3CCOc4ccc(-c5cnc6nc(C)[nH]c6c5)cc4C3)nc(CN(C)C)nc2c1
24 | 10 to 50 | Cc1nc2c(c(N3CCOc4ccc(-c5cnc6sc(N)nc6c5)cc4C3)n1)CC(C)(C)CC2
25 | 10 to 50 | CNS(=O)(=O)c1cc(-c2ccc3c(c2)CN(c2ncnc4c2CC(C)(C)C=C4)CCO3)cnc1N
26 | 50 to 250 | COC(=O)Nc1nc2ccc(-c3ccc4c(c3)CN(c3ncccc3C)CCO4)cc2[nH]1
27 | 10 to 50 | Cc1nc2ccc(-c3ccc4c(c3)CN(c3ncnc5c3CCC(C)C5)CCO4)cc2[nH]1 (centres undefined)
28 | ≤ 10 | C=CCc1c(C)nc(CN(C)C)nc1N1CCOc2ccc(-c3ccc4nc(C)[nH]c4c3)cc2C1
29 | 10 to 50 | Cc1nc2cc(-c3ccc4c(c3)CN(c3nc([C@@H]5CCCN5)nc5c3CC(C)(C)CC5)CCO4)cnc2[nH]1
30 | 50 to 250 | CCc1c(C)nc(C)nc1N1CCOc2ccc(-c3cnc4nc(C)[nH]c4c3)cc2C1
31 | ≤ 10 | CCNc1nc2ncc(-c3ccc4c(c3)CN(c3ncnc(C)c3Cc3ccc(F)cc3)CCO4)cc2[nH]1
32 | 10 to 50 | Cc1nc2ccc(-c3ccc4c(c3)CN(c3nc(CN5CC[C@H](F)C5)nc5c3CC(C)(C)CC5)CCO4)cc2[nH]1
33 | ≤ 10 | Cc1nc2cc(-c3ccc4c(c3)CN(c3nc(N)nc(C)c3Cc3ccc(F)cc3)CCO4)ccc2[nH]1
34 | 250 to 1000 | COc1ccc2nc(Cl)nc(N3CCOc4ccc(-c5ccc6nc(C)[nH]c6c5)cc4C3)c2c1
